{
  "source": "ChEMBL document CHEMBL3124761",
  "about": "“Synthesis and biological evaluation of N,N'-squaramides with high in vivo efficacy and low toxicity: toward a low-cost drug against Chagas disease” (J Med Chem, 2014)",
  "key": {"Mus musculus [1]": {"system": "Mus musculus", "test": "Toxicity in BALB/c albino mouse infected with blood trypomastigote stage of Trypanosoma cruzi assessed as increase in urea level in serum at 500 mg/kg, ip", "type": "organism-based", "parameters": "dose 500 mg/kg, route intraperitoneal", "conditions": "in vivo"}, "Trypanosoma cruzi [2]": {"system": "Trypanosoma cruzi", "test": "Trypanocidal activity against blood trypomastigote stage of Trypanosoma cruzi infected in immunosuppressed BALB/c albino mouse chronic chagas disease model assessed as cyclophosphamide-induced reactivation of parasitemia at 40 mg/kg, ip administered on day 7 to 12 post-infection measured after day 150 (reference value: 98.1%)", "type": "functional", "conditions": "route intraperitoneal"}, "Trypanosoma cruzi [3]": {"system": "Trypanosoma cruzi", "test": "Antitrypanosomal activity against amastigote stage of Trypanosoma cruzi IRHOD/CO/2008/SN3 infected in African green monkey Vero cells assessed as reduction of amastigote number per cell at IC25 preincubated for 12 hrs followed by compound washout measured every 48 hrs for 10 days by Neubauer hemocytometric chamber analysis relative to control", "type": "functional"}, "Trypanosoma cruzi [4]": {"system": "Trypanosoma cruzi", "test": "Antitrypanosomal activity against epimastigote stage of Trypanosoma cruzi IRHOD/CO/2008/SN3 assessed as appearance of enormous reservosomes at IC25 after 72 hrs by TEM analysis", "type": "functional, organism-based"}, "Mus musculus [5]": {"system": "Mus musculus", "test": "Toxicity in BALB/c albino mouse infected with blood trypomastigote stage of Trypanosoma cruzi assessed as change in ALT/GPT level in serum at 500 mg/kg, ip relative to control", "type": "organism-based", "parameters": "dose 500 mg/kg, route intraperitoneal", "conditions": "in vivo"}, "Mus musculus [6]": {"system": "Mus musculus", "test": "Toxicity in BALB/c albino mouse infected with blood trypomastigote stage of Trypanosoma cruzi assessed as change in urea level in serum at 25 mg/kg, ip administered on day 7 to 12 post-infection measured after day 120 relative to control", "type": "organism-based", "parameters": "dose 25 mg/kg, route intraperitoneal", "conditions": "in vivo"}, "Mus musculus [7]": {"system": "Mus musculus", "test": "Toxicity in BALB/c albino mouse infected with blood trypomastigote stage of Trypanosoma cruzi assessed as change in AST/GOT level in serum at 500 mg/kg, ip relative to control", "type": "organism-based", "parameters": "dose 500 mg/kg, route intraperitoneal", "conditions": "in vivo"}, "Mus musculus [8]": {"system": "Mus musculus", "test": "Toxicity in BALB/c albino mouse assessed as mortality at 25 mg/kg, ip administered for 5 days", "type": "organism-based", "parameters": "dose 25 mg/kg, route intraperitoneal", "conditions": "in vivo, 120 h"}, "Mus musculus [9]": {"system": "Mus musculus", "test": "Toxicity in BALB/c albino mouse infected with blood trypomastigote stage of Trypanosoma cruzi assessed as change in uric acid level in serum at 40 mg/kg, ip administered on day 7 to 12 post-infection measured after day 150 relative to control", "type": "organism-based", "parameters": "dose 40 mg/kg, route intraperitoneal", "conditions": "in vivo"}, "Mus musculus [10]": {"system": "Mus musculus", "test": "Toxicity in BALB/c albino mouse infected with blood trypomastigote stage of Trypanosoma cruzi assessed as increase in LDH level in serum at 40 mg/kg, ip administered on day 7 to 12 post-infection measured after day 150 relative to control", "type": "organism-based", "parameters": "dose 40 mg/kg, route intraperitoneal", "conditions": "in vivo"}, "Mus musculus [11]": {"system": "Mus musculus", "test": "Toxicity in BALB/c albino mouse infected with blood trypomastigote stage of Trypanosoma cruzi assessed as decrease in alkaline phosphatase level in serum at 25 mg/kg, ip administered on day 7 to 12 post-infection measured after day 120 relative to control", "type": "organism-based", "parameters": "dose 25 mg/kg, route intraperitoneal; scale not given: the % may be the effect or the level left", "conditions": "in vivo"}, "Trypanosoma cruzi [12]": {"system": "Trypanosoma cruzi", "test": "Antitrypanosomal activity against epimastigote stage of Trypanosoma cruzi IRHOD/CO/2008/SN3 assessed as change in excreted lactate level at IC25 after 96 hrs by 1H NMR analysis relative to control", "type": "functional"}, "Mus musculus [13]": {"system": "Mus musculus", "test": "Toxicity in BALB/c albino mouse infected with blood trypomastigote stage of Trypanosoma cruzi assessed as increase in uric acid level in serum at 25 mg/kg, ip administered on day 7 to 12 post-infection measured after day 120 relative to control", "type": "organism-based", "parameters": "dose 25 mg/kg, route intraperitoneal", "conditions": "in vivo"}, "Trypanosoma cruzi [14]": {"system": "Trypanosoma cruzi", "test": "Trypanocidal activity against blood trypomastigote stage of Trypanosoma cruzi infected in immunosuppressed BALB/c albino mouse chronic chagas disease model assessed as decrease in parasite burden in heart at 40 mg/kg, ip administered on day 7 to 12 post-infection measured on day 150 by PCR analysis relative to control", "type": "functional", "parameters": "scale not given: the % may be the effect or the level left", "conditions": "route intraperitoneal"}, "Trypanosoma cruzi [15]": {"system": "Trypanosoma cruzi", "test": "Antitrypanosomal activity against trypomastigote stage of Trypanosoma cruzi IRHOD/CO/2008/SN3 assessed as reduction of trypomastigote number per mililiter of culture medium at IC25 preincubated for 12 hrs followed by compound washout measured every 48 hrs for 10 days by Neubauer hemocytometric chamber analysis relative to control", "type": "functional"}, "Trypanosoma cruzi [16]": {"system": "Trypanosoma cruzi", "test": "Antitrypanosomal activity against epimastigote stage of Trypanosoma cruzi IRHOD/CO/2008/SN3 assessed as parasite growth inhibition after 72 hrs by Neubauer hemocytometric chamber analysis", "type": "functional, organism-based", "conditions": "IRHOD/CO/2008/SN3, 72 h"}, "[17]": {"test": "Selectivity index, ratio of IC50 for African green monkey Vero cells to IC50 for amastigote stage of Trypanosoma cruzi IRHOD/CO/2008/SN3 infected in African green monkey Vero cells", "type": "toxicity, cell-based", "conditions": "read-out: Ratio IC50"}, "Vero": {"system": "Vero", "test": "Cytotoxicity against African green monkey Vero cells assessed as cell viability after 72 hrs by propidium iodide/fluorescein diacetate staining-based flow cytometric analysis", "conditions": "Chlorocebus sabaeus"}, "Mus musculus [18]": {"system": "Mus musculus", "test": "Toxicity in BALB/c albino mouse infected with blood trypomastigote stage of Trypanosoma cruzi assessed as increase in total bilirubin level in serum at 40 mg/kg, ip administered on day 7 to 12 post-infection measured after day 150 relative to control", "type": "organism-based", "parameters": "dose 40 mg/kg, route intraperitoneal", "conditions": "in vivo"}, "Trypanosoma cruzi [19]": {"system": "Trypanosoma cruzi", "test": "Antitrypanosomal activity against epimastigote stage of Trypanosoma cruzi IRHOD/CO/2008/SN3 assessed as change in excreted pyruvate level at IC25 after 96 hrs by 1H NMR analysis relative to control", "type": "functional"}, "Mus musculus [20]": {"system": "Mus musculus", "test": "Toxicity in BALB/c albino mouse infected with blood trypomastigote stage of Trypanosoma cruzi assessed as increase in creatinephophokinase-MB level in serum at 500 mg/kg, ip relative to control", "type": "organism-based", "parameters": "dose 500 mg/kg, route intraperitoneal", "conditions": "in vivo"}, "Trypanosoma cruzi [21]": {"system": "Trypanosoma cruzi", "test": "Trypanocidal activity against metacyclic trypomastigote stage of Trypanosoma cruzi infected in BALB/c albino mouse acute chagas disease model assessed as inhibition of parasitemia at 25 mg/kg, ip administered on day 7 to 12 post-infection measured every 2 days until day 40 […] relative to control", "type": "functional", "conditions": "route intraperitoneal"}, "Mus musculus [22]": {"system": "Mus musculus", "test": "Toxicity in BALB/c albino mouse infected with blood trypomastigote stage of Trypanosoma cruzi assessed as change in urea level in serum at 40 mg/kg, ip administered on day 7 to 12 post-infection measured after day 150 relative to control", "type": "organism-based", "parameters": "dose 40 mg/kg, route intraperitoneal", "conditions": "in vivo"}, "[23]": {"test": "Selectivity index, ratio of IC50 for African green monkey Vero cells to IC50 for epimastigote stage of Trypanosoma cruzi IRHOD/CO/2008/SN3", "type": "toxicity, cell-based", "conditions": "read-out: Ratio IC50"}, "[24]": {"test": "Dissociation constant, pKa of the compound in aqueous solution", "type": "physicochemical"}, "Mus musculus [25]": {"system": "Mus musculus", "test": "Toxicity in BALB/c albino mouse infected with blood trypomastigote stage of Trypanosoma cruzi assessed as change in uric acid level in serum at 500 mg/kg, ip", "type": "organism-based", "parameters": "dose 500 mg/kg, route intraperitoneal", "conditions": "in vivo"}, "Trypanosoma cruzi [26]": {"system": "Trypanosoma cruzi", "test": "Antitrypanosomal activity against amastigote stage of Trypanosoma cruzi IRHOD/CO/2008/SN3 infected in African green monkey Vero cells assessed as parasite growth inhibition after 72 hrs by Giemsa staining-based microscopic analysis", "type": "functional, organism-based", "conditions": "IRHOD/CO/2008/SN3, Vero"}, "Mus musculus [27]": {"system": "Mus musculus", "test": "Toxicity in BALB/c albino mouse infected with blood trypomastigote stage of Trypanosoma cruzi assessed as increase in total bilirubin level in serum at 500 mg/kg, ip relative to control", "type": "organism-based", "parameters": "dose 500 mg/kg, route intraperitoneal", "conditions": "in vivo"}, "Trypanosoma cruzi [28]": {"system": "Trypanosoma cruzi", "test": "Trypanocidal activity against metacyclic trypomastigote stage of Trypanosoma cruzi infected in BALB/c albino mouse acute chagas disease model assessed as reduction of parasite burden at 25 mg/kg, ip administered on day 7 to 12 post-infection measured on day 14 by ELISA", "type": "functional, organism-based", "parameters": "dose 25 mg/kg"}, "Mus musculus [29]": {"system": "Mus musculus", "test": "Toxicity in BALB/c albino mouse infected with blood trypomastigote stage of Trypanosoma cruzi assessed as decrease in alkaline phosphatase level in serum at 40 mg/kg, ip administered on day 7 to 12 post-infection measured after day 150 relative to control", "type": "organism-based", "parameters": "dose 40 mg/kg, route intraperitoneal; scale not given: the % may be the effect or the level left", "conditions": "in vivo"}},
  "note": "The source made the active and inactive calls. No cut-off for these calls is given here.",
  "data": [
    {"molecule": "CCCCNc1c(N(C)CCCN(C)C)c(=O)c1=O", "values": [
      {"measurement": "Activity", "setting": "Mus musculus [1]", "result": 30, "unit": "%"},
      {"measurement": "Activity", "setting": "Trypanosoma cruzi [2]", "result": 3.1, "unit": "%"},
      {"measurement": "inhibition (INH)", "setting": "Trypanosoma cruzi [3]", "result": 52, "unit": "%"},
      {"measurement": "Activity", "setting": "Trypanosoma cruzi [4]", "result": "Active"},
      {"measurement": "Activity", "setting": "Mus musculus [5]", "result": "< 10", "unit": "%"},
      {"measurement": "Activity", "setting": "Mus musculus [6]", "result": "< 10", "unit": "%"},
      {"measurement": "Activity", "setting": "Mus musculus [7]", "result": "< 10", "unit": "%"},
      {"measurement": "Activity", "setting": "Mus musculus [8]", "result": "Non-toxic"},
      {"measurement": "Activity", "setting": "Mus musculus [9]", "result": "< 10", "unit": "%"},
      {"measurement": "Activity", "setting": "Mus musculus [10]", "result": 10, "unit": "%"},
      {"measurement": "Activity", "setting": "Mus musculus [11]", "result": 10, "unit": "%"},
      {"measurement": "Activity", "setting": "Trypanosoma cruzi [12]", "result": -28.3, "unit": "%"},
      {"measurement": "Activity", "setting": "Mus musculus [13]", "result": 30, "unit": "%"},
      {"measurement": "Activity", "setting": "Trypanosoma cruzi [14]", "result": 83.3, "unit": "%"},
      {"measurement": "inhibition (INH)", "setting": "Trypanosoma cruzi [15]", "result": 75, "unit": "%"},
      {"measurement": "IC50", "setting": "Trypanosoma cruzi [16]", "result": 9.4, "unit": "µM"},
      {"measurement": "selectivity ratio", "setting": "[17]", "result": 53.3},
      {"measurement": "IC50", "setting": "Vero", "result": 453, "unit": "µM"},
      {"measurement": "Activity", "setting": "Mus musculus [18]", "result": 30, "unit": "%"},
      {"measurement": "Activity", "setting": "Trypanosoma cruzi [19]", "result": 81.5, "unit": "%"},
      {"measurement": "Activity", "setting": "Mus musculus [20]", "result": "> 50", "unit": "%"},
      {"measurement": "inhibition in vivo at 25 mg/kg", "setting": "Trypanosoma cruzi [21]", "result": 67, "unit": "%"},
      {"measurement": "Activity", "setting": "Mus musculus [22]", "result": "< 10", "unit": "%"},
      {"measurement": "selectivity ratio", "setting": "[23]", "result": 48.2},
      {"measurement": "pKa", "setting": "[24]", "result": 8.8},
      {"measurement": "Activity", "setting": "Mus musculus [25]", "result": "< 10", "unit": "%"},
      {"measurement": "IC50", "setting": "Trypanosoma cruzi [26]", "result": 8.5, "unit": "µM"},
      {"measurement": "Activity", "setting": "Mus musculus [27]", "result": 40, "unit": "%"},
      {"measurement": "Activity", "setting": "Trypanosoma cruzi [28]", "result": "Active"},
      {"measurement": "Activity", "setting": "Mus musculus [29]", "result": 30, "unit": "%"}
    ]}
  ]
}
